Columns and labels:
[1] = test system: CCRF-CEM cells; experiment: Competition of cold 2F-AraG with 8-[3H]-AraG uptake in CCRF-CEM cells; format: cell-based; settings: increasing amount of 2F-AraG 1-100 μM, 60 or 120 minutes
Experimental: FIG. 2.3a illustrates a graph of 5×10^5 CCRF-CEM cells were incubated, in triplicate, with 1 uCi 8H^3-AraG (1 mCi/ml) and increasing amounts of cold 2F-AraG or DMSO for either 60 or 120 minutes. Percent of control uptake was calculated as: measured cpm of sample/cpm accumulated 1 uCi 8[H^3]-AraG control×100.
We have successfully synthesized a novel ^18F derivative of 2-deoxyguanosine analog, 9-β-D-arabinofuranosylguanine (18F-AraG), to use as a molecular probe (FIG. 2.1). [^18F]AraG cell uptake was evaluated in leukemia cell line, CCRF-CEM, and was compared with [^3H]Arag cell uptake. […] To determine whether cold derivative 2F-AraG competes with the uptake of 8-[^3H]-AraG, we studied the [^3H]-Arag uptakes by CCRF-CEM, MOLT-4 (Leukemia cell line) and Raji (human Burkitt's lymphoma cell line) and competition with cold 2F-AraG (FIGS. 2.3a and 2.3b). […] Competition assays indicate that cold derivative 2F-Arag competes with the uptake of the 8-[^3H]-AraG, indicating similar uptake pathways.

[2] = test system: primary T cells; experiment: [18F]F-AraG uptake in purified primary T cells, stimulated or un-stimulated; format: cell-based, mouse; settings: for fold more uptake than un-stimulated primary T cells: 1 μCi, 60 minutes
Experimental: Error bars represent mean of triplicate determinations+/−SEM., n=4 p=0.14 and 0.003 by two tailed, paired Student T test respectively.
(§1) CCRF-CEM (acute lymphoblastic T leukemia cell line procured form ATCC) cells were maintained in RPMI 1640 (Cellgro) supplemented with 100 U penicillin/100 ug streptomycin/ml (Cellgro) and 10% fetal bovine serum (Gibco). 5×10^5 CCRF-CEM cells were plated in 12 well dishes. Cells were allowed to settle for one hour then [^18F]F-AraG was added to each well and incubated at 37° C. for indicated times. Primary T cells were isolated from spleens and thymus of out-bred mice. Briefly, tissues were minced and single cell suspensions made in RPMI supplemented as above. Cells were centrifuged at 300×g for 8 minutes at 4° C. and cell pellets were resuspended in phosphate buffered saline (PBS) supplemented with 0.5% bovine serum albumin (BSA). T cells were purified from the suspensions using Miltenyi Pan T antibodies and columns (Miltenyi Biotec) per manufacturer's directions. Purified T cells were either stimulated with 100 U/ml IL-2 (eBiosciences) for 24 or 48 hours, or 50 nM phorbol myristate acetate (PMA) (Fluka) with 1 μg/mL ionomycin (Sigma) for 48 hours or left unstimulated then exposed to 1 μCi of [^18F]F-AraG/10^6 cells for 60 minutes. All cells were then washed in 1×PBS, lysed and radioactivity of each well was determined by gamma counter for [^18F] samples. All results were done in triplicate and are expressed in counts per minute (CPM), standard errors were determined and student T tests performed.

[3] = test system: CCRF-CEM cells; experiment: [18F]F-AraG cell uptake in CCRF-CEM cells (gamma counter); format: cell-based; settings: for fold more [18F]F-AraG uptake at 10 μCi as compared to 3 μCi: 5×10^5 CCRF-CEM cells
Experimental: FIG. 2.2 illustrates a graph of 5×10^5 CCRF-CEM cells were labeled with ^18F-AraG (0.6 mCi/ml) for indicated times and doses. Uptake was measured on gamma counter. Bars represent mean of triplicate determinations+/−SEM.
Cells took up ˜2-fold more [^18F]F-AraG when exposed to 10 μCi, at 60 minutes (p=0.008) and at 120 minutes (p=0.001) as compared to 3 μCi. Error bars represent S.E.M.
as §1

[4] = micro PET scans in normal nude mice; format: in vivo; settings: initial scans
[5] = cited from earlier work

Nc1nc2c(ncn2[C@@H]2O[C@H](CO)[C@@H](O)[C@@H]2F)c(=O)[nH]1 [2F-AraG, 2′-Deoxy-2′-fluoro-9-β-D-arabinofuranosylguanine]
effect on [3H]-AraG uptake [1]: decrease of the [^3H]-AraG uptake

Nc1nc2c(ncn2[C@@H]2O[C@H](CO)[C@@H](O)[C@@H]2[18F])c(=O)[nH]1 [[^18F]F-AraG, 2′-Deoxy-2′-[^18F]fluoro-9-β-D-arabinofuranosylguanine]
cell uptake (qualitative) ([2]; activated primary thymocytes / primary T cells): take up [^18F]F-AraG to an appreciable level | fold more uptake than un-stimulated primary T cells ([2]; stimulated with 50 nM PMA and 1 μg/mL ionomycin, p=0.003): 4.7 fold | fold more uptake than un-stimulated primary T cells ([2]; stimulated with 100 U/mL interleukin 2, p=0.14): 1.4 fold | fold more [18F]F-AraG uptake at 10 μCi as compared to 3 μCi ([3]; 60 minutes, p=0.008): ~2 fold | fold more [18F]F-AraG uptake at 10 μCi as compared to 3 μCi ([3]; 120 minutes, p=0.001): ~2 fold | dose dependence of uptake ([3]; CCRF-CEM cells): dose dependent | time course of uptake ([3]; CCRF-CEM cells, 60 or 120 minutes): majority of the [^18F]F-AraG is taken up by cells within the first hour | cell uptake (qualitative) ([3]; CCRF-CEM leukemia cell line, unactivated): take up | fold increase in [18F]F-AraG uptake, cells exposed to 10 μCi compared to 3 μCi ([3]; unactivated CCRF-CEM cells, time not stated): 2 fold | tissue uptake in micro PET [4]: taken up within the thymus and lymph nodes

Nc1nc2c(ncn2[C@@H]2O[C@H](CO)[C@@H](O)[C@@H]2O)c(=O)[nH]1 [AraG, 9-β-D-arabinofuranosylguanine]
therapeutic serum levels at which neurotoxic side effects are induced in some patients [5]: ~150 µM

Reference: patent US9011817B2, “Compounds and methods of making compounds” (The Board of Trustees of the Leland Stanford Junior …, priority 2009, dated 2015)
